According to patent publication US10912817B2, “Prelyophilized, lyophilized and reconstituted formulations comprising TAT-NR2B9C with d-amino acids, histidine and trehalose” (NoNO Inc., priority 2012, dated 2021):
No end group written: not given here.

How the values were obtained:
Type in all cases: physicochemical
[1] = Solubility study of NA-1 (visual analysis); details: pH 6.5, 35, 50, 75 and 100 mg/mL, t=0 and t=24 hours
Procedure: Due to the relatively low Tg temperatures that would likely require a longer lyophilization cycle to dry, we looked at a wider range of standard bulking agents and looked to reduce the fill volume into the container closure system so that there would be a reduced volume of liquid to lyophilize. […] Samples were visually analyzed at 35, 50, 75 and 100 mg/mL. All solutions were clear at t=0 and t=24 hours. […] A wide range of quantities may be required in a vial, but 270 mg would provide a […] dose for a 100 kg patient. Assuming the target reconstitution concentration for patient administration is still 20 mg/mL (but can be from 1 mg/ml to 100 mg/ml), then a 20-mL lyophilization vial containing 270 mg of NA-1 can be used with a reconstitution volume of 13.5 mL. Therefore, optimal volumes of liquid for lyophilization of NA-1 in the vial would be between 2.5 mL and 10 mL.

[2] = 90 mg/mL NA-1 lyophile accelerated stability (small scale 3); details: histidine buffer concentrations of 50 and 75 mM; further tests; shortened resuspension times
Procedure: A small batch of NA-1 drug product was lyophilized to evaluate solid state stability after 1 week storage at 25° C. and 60° C. Two 90 mg/mL NA-1 formulations were compounded (buffer and buffer with trehalose). Samples were evaluated for appearance, reconstitution, water content and purity by HPLC (MSA method) at t=0 and t=1 week.
Vials were placed on stability at 25° C. and 60° C. and tested after 1 week of storage.

[3] = Solid state stability of lyophilized 270 mg NA-1 in 20 mM histidine pH 6.5 and 120 mM trehalose; details: same lyophile; at −20° C.

YGRKKRRQRRRKLSSIESDV [NA-1]
solubility (visual analysis of solutions) ([1]; NA-1 in Histidine+Trehalose): clear | solubility (visual analysis of solutions) ([1]; NA-1 in Histidine): clear | stability of NA-1 [2]: good stability | stability of the formulation [3]: stable
